According to patent US11427615B2, “Peptide compound and application thereof, and composition containing peptide compound” (XDCEXPLORER (SHANGHAI) CO., LTD., priority 2017, dated 2022):
Non-standard residues stand in square brackets, D forms with d. Residues, ends and D or L forms follow the SMILES beside them. dPhe(2,4-Cl2) = N[C@H](Cc1ccc(Cl)cc1Cl)C(=O)O; Phe(4-F) = N[C@@H](Cc1ccc(F)cc1)C(=O)O; Pro(4,4-F2) = O=C(O)[C@@H]1CC(F)(F)CN1; dAla(2-furyl) = N[C@H](Cc1ccco1)C(=O)O; dPhe(4-F) = N[C@H](Cc1ccc(F)cc1)C(=O)O; Arg(Me) = CNC(=N)NCCC[C@H](N)C(=O)O; Hyp = O=C(O)[C@@H]1C[C@@H](O)CN1; 2Thi = N[C@@H](Cc1cccs1)C(=O)O; Pip = O=C(O)[C@@H]1CCCCN1; Ac6c = NC1(C(=O)O)CCCCC1; Aze = O=C(O)[C@@H]1CCN1

The compounds below were run against T1, human kiss1 receptor (GPR54) (Homo sapiens, UniProt Q969F8) (assay: Kiss1 receptor (GPR54) binding activity of agonists, FRET detection in NFAT-bla CHO-K1 cells). Details: GPR54; measured according to the method of effect Embodiment 1; preliminary data; read-out: Preliminary measurement data (GPR54) EC50.
T1 construct: host or cells: NFAT-bla CHO-K1 cells (Chinese hamster ovary), purchased recombinant cell line
T1 sequence (Q969F8 whole entry): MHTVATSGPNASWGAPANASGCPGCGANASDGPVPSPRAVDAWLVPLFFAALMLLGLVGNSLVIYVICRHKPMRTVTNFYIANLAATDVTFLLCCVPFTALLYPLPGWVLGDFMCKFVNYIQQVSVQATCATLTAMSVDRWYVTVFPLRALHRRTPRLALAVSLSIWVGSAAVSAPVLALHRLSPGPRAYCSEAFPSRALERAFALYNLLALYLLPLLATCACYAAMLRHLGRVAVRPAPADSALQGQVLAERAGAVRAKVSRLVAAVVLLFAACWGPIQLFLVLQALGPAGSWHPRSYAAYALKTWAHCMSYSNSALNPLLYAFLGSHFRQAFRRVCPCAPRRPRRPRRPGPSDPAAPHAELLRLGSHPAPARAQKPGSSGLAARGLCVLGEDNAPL
Type: cell-based
Description: Effect Embodiment 1 Determination of Kiss1 Receptor (GPR54) Binding Activity of Kiss1 Receptor (GPR54) Agonist
The binding activity test of each compound from the above the embodiments with kiss1 receptor (GPR54) was performed by fluorescence energy resonance transfer (FRET) detection technology to detect EC50 values of polypeptides and peptide analogs. The cells used in this experiment were NFAT-bla CHO-K1 cells (k1720, invitrogen, thermosher) that express human kiss1 receptor (GPR54). The specific operations were as follows:
Day 1: Seeding Cells in Plate
1. Microscope (CKX41, OLYMPUS), object lens×4 times, ocular lens×10 times. The cells were ensured in a good condition.
2. Digesting the cells, adding 3 ml of 0.05% pancreatin into a culture dish; cells were placed in a 37° C., 5% CO2 incubator for 2 minutes (Thermo Fisher). After the cells became round under the microscope, 7 ml of culture medium was added. The formula of culture medium was as follows: DMEM 90%, dialzedfbS10, NEAA 0.1 mM, HEPES 25 mM, Penicillin 100 U/ml, Streptomycin 100 μm/ml, pH7.3. After blowing and stirring, it was transferred to 15 mL centrifuge tube (430790, Corning). Centrifuge at 1000 rpm for 5 min (5810R, Eppendorf) and the supernatant was discard.
3. Adding 7 mL of culture medium (DMEM+0.1% BSA), it was pipetting into single cell suspension, after counting with Bio-RAD counter, the cell density was adjusted to 312,500 cells/ml.
4. Cells were inoculated into 384 well plates at 32 μL per well, and the cell number was controlled at 10000 cells/well. 32 μl of culture medium was added into the blank control.
Day 2: Dosing and Data Analysis
1) The compound to be tested was prepared into 50 mM working solution with DMSO.
2) 40 μl of the working solution of the compound to be tested was added into column 2 of row A-H of U-shaped 96-well plate (3797, comings), and 60 μl of DMSO was added into column 3-11. 20 μl of compound solution was sucked from the second column to the third column with a multichannel pipette blowing and stirring evenly; 20 μl of compound solution was absorbed from the third column with a multichannel pipette, then added into the fourth column, blowed and stirred to mix well; the compound was serially diluted 4-fold to a total of 10 concentrations. Column 1 and column 12 of 96-well plates were supplemented with 40 μl DMSO.
2. Intermediate Plate Configuration
1) AU-shaped 96-well plate was used, 199 μL of culture medium (DMEM+0.1% BSA) was added to each well, 1 μL of diluted compound (or DMSO) was sucked from 1000× compound plate and added into the 96-well plate at the corresponding position, blowed and stirred to mix well.
2) Homemade positive compounds and compounds to be tested were added. The cell culture plate was took out from the incubator and cells state was observed under microscope. Diluted compound in the intermediate plate or DMSO was added into the cell, 8 μl per well.
3) Cells were cultured in 37° C. and 5% CO2 for 4 hours.
3. The Substrate was Added to Detect the Binding of the Drug to the Receptor
1) 1 μmol/L CCF-4AM solution and buffer solution B, C, D were equilibrated to room temperature. LiveBLAZER™-FRET B/G Loading Kit (K1095, thermo Fisher) containing CCF-4AM and solution B, solution C, solution D were also available from Invitrogen (K1157, thermo Fisher).
2) 6× loading solution was prepared: 6 μl of CCF-4AM dissolved solution A, 60 μl of solution b, 904 μl of solution c, and 30 μl of solution D were pipetted into EP tube, blowed and stirred to mix well.
3) 8 μl of the above-mentioned liquid was sucked with a multichannel pipette, added into a 96-well plate, and incubated for 2 hours at room temperature.
4) The PerkinElmer detector was used to detect the luminous signals of each hole. FI mode, λex=409 nm, λem1=460 nm, λem2=530 nm.
4. Data Processing Using Graphpad Prism 5 (GraphPad Software. Inc)
Effective rate %=(Signal−Min)/(Max−Min)×100%.

| SMILES | EC50 [nM] |
| --- | --- |
| CNC(=N)NCCC[C@H](NC(=O)[C@H](CC(C)C)NC(=O)[C@@H]1CCN1C(=O)[C@H](Cc1ccccc1)NC(=O)[C@@H](NC(=O)[C@H](CC(N)=O)NC(=O)[C@@H]1C[C@@H](O)CN1C(=O)[C@@H](Cc1ccc(Cl)cc1Cl)NC(C)=O)[C@@H](C)O)C(=O)N[C@@H](Cc1c[nH]c2ccccc12)C(N)=O [YA-188, Ac-[D-Phe(2,4-DiCl)]-Hyp-Asn-Thr-Phe-Aze-Leu-Arg(Me)-Trp-NH2] (Ac-[dPhe(2,4-Cl2)][Hyp]NTF[Aze]L[Arg(Me)]W-NH2) | 0.477 |
| CNC(=N)NCCC[C@H](NC(=O)[C@H](CC(C)C)NC(=O)[C@@H]1CCN1C(=O)[C@H](Cc1ccccc1)NC(=O)[C@@H](NC(=O)[C@H](CC(N)=O)NC(=O)[C@@H]1C[C@@H](O)CN1C(=O)[C@@H](Cc1ccco1)NC(C)=O)[C@@H](C)O)C(=O)N[C@@H](Cc1c[nH]c2ccccc12)C(N)=O [YA-189, Ac-D-2Fua-Hyp-Asn-Thr-Phe-Aze-Leu-Arg(Me)-Trp-NH2] (Ac-[dAla(2-furyl)][Hyp]NTF[Aze]L[Arg(Me)]W-NH2) | 1.7 |
| CNC(=N)NCCC[C@H](NC(=O)[C@H](CC(C)C)NC(=O)[C@@H]1CCN1C(=O)[C@H](Cc1ccccc1)NC(=O)[C@@H](NC(=O)[C@H](CC(N)=O)NC(=O)[C@@H]1C[C@@H](O)CN1C(=O)[C@H](Cc1ccc(F)cc1)NC(C)=O)[C@@H](C)O)C(=O)N[C@@H](Cc1c[nH]c2ccccc12)C(N)=O [YA-190, Ac-Phe(4-F)-Hyp-Asn-Thr-Phe-Aze-Leu-Arg(Me)-Trp-NH2] (Ac-[Phe(4-F)][Hyp]NTF[Aze]L[Arg(Me)]W-NH2) | 3.89 |
| CNC(=N)NCCC[C@H](NC(=O)[C@H](CC(C)C)NC(=O)[C@@H]1CCN1C(=O)[C@H](Cc1ccccc1)NC(=O)[C@@H](NC(=O)[C@H](CC(N)=O)NC(=O)[C@H](Cc1cccs1)NC(=O)[C@@H](Cc1ccc(O)cc1)NC(C)=O)[C@@H](C)O)C(=O)N[C@@H](Cc1c[nH]c2ccccc12)C(N)=O [YA-191, Ac-D-Tyr-Thi-Asn-Thr-Phe-Aze-Leu-Arg(Me)-Trp-NH2] (Ac-[dY][2Thi]NTF[Aze]L[Arg(Me)]W-NH2) | 0.521 |
| CNC(=N)NCCC[C@H](NC(=O)[C@H](CC(C)C)NC(=O)[C@@H]1CCN1C(=O)[C@H](Cc1ccccc1)NC(=O)[C@@H](NC(=O)[C@H](CC(N)=O)NC(=O)[C@@H]1CC(F)(F)CN1C(=O)[C@@H](Cc1ccc(O)cc1)NC(C)=O)[C@@H](C)O)C(=O)N[C@@H](Cc1c[nH]c2ccccc12)C(N)=O [YA-193, Ac-(D-Tyr)-Pro(diF)-Asn-Thr-Phe-Aze-Leu-Arg(Me)-Trp-NH2] (Ac-[dY][Pro(4,4-F2)]NTF[Aze]L[Arg(Me)]W-NH2) | 1.36 |
| CNC(=N)NCCC[C@H](NC(=O)[C@H](CC(C)C)NC(=O)[C@@H]1CCN1C(=O)[C@H](Cc1ccccc1)NC(=O)[C@@H](NC(=O)[C@H](CC(N)=O)NC(=O)[C@@H]1CCCCN1C(=O)[C@@H](Cc1ccc(O)cc1)NC(C)=O)[C@@H](C)O)C(=O)N[C@@H](Cc1c[nH]c2ccccc12)C(N)=O [YA-194, Ac-D-Tyr-(S-Pip)-Asn-Thr-Phe-Aze-Leu-Arg(Me)-Trp-NH2] (Ac-[dY][Pip]NTF[Aze]L[Arg(Me)]W-NH2) | 0.544 |
| CNC(=N)NCCC[C@H](NC(=O)[C@H](CC(C)C)NC(=O)C1(NC(=O)[C@H](Cc2ccccc2)NC(=O)[C@@H](NC(=O)[C@H](CC(N)=O)NC(=O)[C@@H]2C[C@@H](O)CN2C(=O)[C@@H](Cc2ccc(F)cc2)NC(C)=O)[C@@H](C)O)CCCCC1)C(=O)N[C@@H](Cc1c[nH]c2ccccc12)C(N)=O [YA-195, Ac-[D-Phe(4-F)]-Hyp-Asn-Thr-Phe-A6c-Leu-Arg(Me)-Trp-NH2] (Ac-[dPhe(4-F)][Hyp]NTF[Ac6c]L[Arg(Me)]W-NH2) | 0.68 |
| CNC(=N)NCCC[C@H](NC(=O)[C@H](CC(C)C)NC(=O)C1(NC(=O)[C@H](Cc2ccccc2)NC(=O)[C@@H](NC(=O)[C@H](CC(N)=O)NC(=O)[C@@H]2C[C@@H](O)CN2C(=O)[C@@H](Cc2ccc(Cl)cc2Cl)NC(C)=O)[C@@H](C)O)CCCCC1)C(=O)N[C@@H](Cc1c[nH]c2ccccc12)C(N)=O [YA-196, Ac-[D-Phe(2,4-DiCl)]-Hyp-Asn-Thr-Phe-A6c-Leu-Arg (Me)-Trp-NH2] (Ac-[dPhe(2,4-Cl2)][Hyp]NTF[Ac6c]L[Arg(Me)]W-NH2) | 0.48 |

Same assay, conditions: NFAT-bla CHO-K1 cells that express human kiss1 receptor (GPR54); FRET; cells cultured with compound for 4 hours; read-out: GPR54 EC50/nM

| SMILES | EC50 [nM] |
| --- | --- |
| CNC(=N)NCCC[C@H](NC(=O)[C@H](CC(C)C)NC(=O)[C@@H]1CCN1C(=O)[C@H](Cc1ccccc1)NC(=O)[C@@H](NC(=O)[C@H](CC(N)=O)NC(=O)[C@@H]1C[C@@H](O)CN1C(=O)[C@H](Cc1ccc(F)cc1)NC(C)=O)[C@@H](C)O)C(=O)N[C@@H](Cc1c[nH]c2ccccc12)C(N)=O [YA-190, Ac-Phe(4-F)-Hyp-Asn-Thr-Phe-Aze-Leu-Arg(Me)-Trp-NH2] (Ac-[Phe(4-F)][Hyp]NTF[Aze]L[Arg(Me)]W-NH2) | 24.3 |
